Laboratory results: PubChem BioAssay (NCI)
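Abbreviation: GI50, concentration required for 50% inhibition of growth. TGI: total growth inhibition.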

What was measured:
Assay in all cases: growth of human tumour cells (NCI), 384-well format
[1] = tested on: K-562 leukemia
[2] = tested on: A498 renal
[3] = tested on: SW-620 colon
[4] = tested on: UO-31 renal
[5] = tested on: SN12C renal
[6] = tested on: TK-10 renal
[7] = tested on: HS 578T breast
[8] = tested on: MDA-MB-231 breast
[9] = tested on: T-47D breast
[10] = tested on: SF-539 CNS
[11] = tested on: KM12 colon
[12] = tested on: NCI-H322M lung
[13] = tested on: RPMI-8226 leukemia
[14] = tested on: SNB-19 CNS
[15] = tested on: HCT-15 colon
[16] = tested on: MOLT-4 leukemia
[17] = tested on: IGROV1 ovarian
[18] = tested on: NCI-H522 lung
[19] = tested on: HT29 colon
[20] = tested on: SK-OV-3 ovarian
[21] = tested on: BT-549 breast
[22] = tested on: NCI/ADR-RES ovarian
[23] = tested on: COLO 205 colon
[24] = tested on: M14 melanoma
[25] = tested on: SF-268 CNS
[26] = tested on: NCI-H226 lung
[27] = tested on: CCRF-CEM leukemia
[28] = tested on: RXF 393 renal
[29] = tested on: MCF7 breast
[30] = tested on: LOX IMVI melanoma
[31] = tested on: OVCAR-8 ovarian
[32] = tested on: EKVX NSCLC
[33] = tested on: MALME-3M melanoma
[34] = tested on: HCT-116 colon
[35] = tested on: SR leukemia
[36] = tested on: HL-60(TB) leukemia
[37] = tested on: A549 NSCLC
[38] = tested on: NCI-H23 lung
[39] = tested on: HOP-62 NSCLC
[40] = tested on: DU-145 prostate
[41] = tested on: 786-0 renal
[42] = tested on: NCI-H460 NSCLC
[43] = tested on: SK-MEL-5 melanoma
[44] = tested on: SK-MEL-2 melanoma
[45] = tested on: OVCAR-3 ovarian
[46] = tested on: SK-MEL-28 melanoma
[47] = tested on: MDA-MB-435 melanoma
[48] = tested on: OVCAR-5 ovarian
[49] = tested on: UACC-257 melanoma
[50] = tested on: PC-3 prostate
[51] = tested on: ACHN renal
[52] = tested on: HCC-2998 colon
[53] = tested on: MDA-MB-468 breast
[54] = tested on: HOP-92 NSCLC
[55] = tested on: SNB-75 CNS
[56] = tested on: OVCAR-4 ovarian
[57] = tested on: UACC-62 melanoma
[58] = tested on: CAKI-1 renal
[59] = tested on: U251 glioblastoma
[60] = tested on: SF-295 CNS

Compound: O=C(O)[C@H](Cc1c[nH]c2ccccc12)N1C(=O)c2ccccc2C1=O
- GI50 [1]: > 100 µM
- TGI [1]: > 100 µM
- GI50 [2]: > 100 µM
- TGI [2]: > 100 µM
- GI50 [3]: > 100 µM
- TGI [3]: > 100 µM
- GI50 [4]: > 100 µM
- TGI [4]: > 100 µM
- GI50 [5]: > 100 µM
- TGI [5]: > 100 µM
- GI50 [6]: > 100 µM
- TGI [6]: > 100 µM
- GI50 [7]: > 100 µM
- TGI [7]: > 100 µM
- GI50 [8]: > 100 µM
- TGI [8]: > 100 µM
- GI50 [9]: > 100 µM
- TGI [9]: > 100 µM
- GI50 [10]: > 100 µM
- TGI [10]: > 100 µM
- GI50 [11]: > 100 µM
- TGI [11]: > 100 µM
- GI50 [12]: > 100 µM
- TGI [12]: > 100 µM
- GI50 [13]: > 100 µM
- TGI [13]: > 100 µM
- GI50 [14]: > 100 µM
- TGI [14]: > 100 µM
- GI50 [15]: > 100 µM
- TGI [15]: > 100 µM
- GI50 [16]: > 100 µM
- TGI [16]: > 100 µM
- GI50 [17]: > 100 µM
- TGI [17]: > 100 µM
- GI50 [18]: > 100 µM
- TGI [18]: > 100 µM
- GI50 [19]: > 100 µM
- TGI [19]: > 100 µM
- GI50 [20]: > 100 µM
- TGI [20]: > 100 µM
- GI50 [21]: > 100 µM
- TGI [21]: > 100 µM
- GI50 [22]: > 100 µM
- TGI [22]: > 100 µM
- GI50 [23]: > 100 µM
- TGI [23]: > 100 µM
- GI50 [24]: > 100 µM
- TGI [24]: > 100 µM
- GI50 [25]: > 100 µM
- TGI [25]: > 100 µM
- GI50 [26]: > 100 µM
- TGI [26]: > 100 µM
- GI50 [27]: > 100 µM
- TGI [27]: > 100 µM
- GI50 [28]: > 100 µM
- TGI [28]: > 100 µM
- GI50 [29]: > 100 µM
- TGI [29]: > 100 µM
- GI50 [30]: > 100 µM
- TGI [30]: > 100 µM
- GI50 [31]: > 100 µM
- TGI [31]: > 100 µM
- GI50 [32]: > 100 µM
- TGI [32]: > 100 µM
- GI50 [33]: > 100 µM
- TGI [33]: > 100 µM
- GI50 [34]: > 100 µM
- TGI [34]: > 100 µM
- GI50 [35]: > 100 µM
- TGI [35]: > 100 µM
- GI50 [36]: > 100 µM
- TGI [36]: > 100 µM
- GI50 [37]: > 100 µM
- TGI [37]: > 100 µM
- GI50 [38]: > 100 µM
- TGI [38]: > 100 µM
- GI50 [39]: > 100 µM
- TGI [39]: > 100 µM
- GI50 [40]: > 100 µM
- TGI [40]: > 100 µM
- GI50 [41]: > 100 µM
- TGI [41]: > 100 µM
- GI50 [42]: > 100 µM
- TGI [42]: > 100 µM
- GI50 [43]: > 100 µM
- TGI [43]: > 100 µM
- GI50 [44]: > 100 µM
- TGI [44]: > 100 µM
- GI50 [45]: > 100 µM
- TGI [45]: > 100 µM
- GI50 [46]: > 100 µM
- TGI [46]: > 100 µM
- GI50 [47]: > 100 µM
- TGI [47]: > 100 µM
- GI50 [48]: > 100 µM
- TGI [48]: > 100 µM
- GI50 [49]: > 100 µM
- TGI [49]: > 100 µM
- GI50 [50]: > 100 µM
- TGI [50]: > 100 µM
- GI50 [51]: > 100 µM
- TGI [51]: > 100 µM
- GI50 [52]: > 100 µM
- TGI [52]: > 100 µM
- GI50 [53]: > 100 µM
- TGI [53]: > 100 µM
- GI50 [54]: > 100 µM
- TGI [54]: > 100 µM
- GI50 [55]: > 100 µM
- TGI [55]: > 100 µM
- GI50 [56]: > 100 µM
- TGI [56]: > 100 µM
- GI50 [57]: > 100 µM
- TGI [57]: > 100 µM
- GI50 [58]: > 100 µM
- TGI [58]: > 100 µM
- GI50 [59]: > 100 µM
- TGI [59]: > 100 µM
- GI50 [60]: > 100 µM
- TGI [60]: > 100 µM
